The target of this experiment is Complement factor D (Homo sapiens, UniProt P00746). Kind of experiment: Inhibition Assay: Human factor D (purified from human serum, Complement Technology, Inc.) at 80 nM final concentration is incubated with test compound at various concentrations for 5 minutes at room temperature in 50 mM Tris, 1M NaCl, pH 7.5. A synthetic substrate Z-L-Lys-SBzl and DTNB (Ellman's reagent) are added to final concentrations of 100 μM each. The increase in color is recorded at OD405 nm in a microplate in kinetic mode over 30 minutes with 30 second time points in a […]. IC50 values are calculated by non-linear regression from the percentage of inhibition of complement factor D activity as a function of test compound concentration.
Chain of Complement factor D (P00746 whole entry): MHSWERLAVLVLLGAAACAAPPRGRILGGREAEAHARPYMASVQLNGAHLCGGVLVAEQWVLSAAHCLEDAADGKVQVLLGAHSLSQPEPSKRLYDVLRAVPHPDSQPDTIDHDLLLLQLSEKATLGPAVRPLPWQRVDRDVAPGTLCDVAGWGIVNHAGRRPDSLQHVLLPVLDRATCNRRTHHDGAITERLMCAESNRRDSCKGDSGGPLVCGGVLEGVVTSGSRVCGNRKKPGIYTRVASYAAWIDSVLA

In general, IC50 refers to the point on the concentration scale where inhibition reaches its midpoint. In the case of `NC(=O)c1nn(CC(=O)N2C[C@H](F)C[C@H]2C(=O)Nc2cncc(Br)n2)c2ccc(C#Cc3ncc(F)cn3)cc12`, the IC50 was < 1000 nM.

The record behind these values is ChEMBL document CHEMBL5726651, “Alkyne compounds for treatment of complement mediated disorders” (2017).
